Laboratory results as given in PubChem BioAssay AID248 (DTP/NCI, 2004).
Several values for one entry are separate records, joined by “and”; a condition that tells them apart may be missing. Equal values may be shown once. Inconclusive results and toxic doses are left out.

Tested on: L1210 leukemia ip in BDF1 mice, survival T/C
Test: NCI In Vivo Anticancer Drug Screen. Data for tumor model L1210 Leukemia (intraperitoneal) in B6D2F1 (BDF1) mice
Settings: endpoint: mean survival time, higher = longer survival
Outline: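 Survival endpoint. Drug-treated group vs vehicle group, expressed as T divided by C. Tumor passaged by transplantation.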

[1] = dose: 100.0 mg/kg/injection, schedule: Q01DX001 (ip), vehicle: saline
[2] = dose: 200.0 mg/kg/injection, schedule: Q01DX001 (ip), vehicle: saline
[3] = dose: 50.0 mg/kg/injection, schedule: Q01DX009 (ip), vehicle: saline
[4] = dose: 100.0 mg/kg/injection, schedule: Q01DX009 (ip), vehicle: saline
[5] = dose: 200.0 mg/kg/injection, schedule: Q01DX009 (ip), vehicle: saline
[6] = dose: 100.0 mg/kg/injection, schedule: Q04DX003 (ip), vehicle: saline
[7] = dose: 200.0 mg/kg/injection, schedule: Q04DX003 (ip), vehicle: saline

With `COC(=O)C(N)Cc1ccc(OC)c(N(CCCl)CCCl)c1` (centres undefined) the T/C (dose: 0.01 mg/kg/injection, schedule: Q01DX009 (ip), vehicle: saline) was 106 % of control, the T/C (dose: 0.02 mg/kg/injection, schedule: Q01DX009 (ip), vehicle: saline) was 116 % of control and the T/C (dose: 0.05 mg/kg/injection, schedule: Q01DX009 (ip), vehicle: saline) was 110 % of control. For the same compound, the T/C (dose: 0.1 mg/kg/injection, schedule: Q01DX009 (ip), vehicle: saline) was 121 % of control, the T/C (dose: 0.3 mg/kg/injection, schedule: Q01DX009 (ip), vehicle: saline) was 155 % of control and the T/C (dose: 0.62 mg/kg/injection, schedule: Q01DX001 (ip), vehicle: saline) was 106 % of control. For the same compound, the T/C (dose: 1.25 mg/kg/injection, schedule: Q01DX001 (ip), vehicle: saline) was 98 % of control, the T/C (dose: 1.5 mg/kg/injection, schedule: Q01DX001 (ip), vehicle: carboxymethylcellulose (CMC)) was 115 % of control and the T/C (dose: 1.5 mg/kg/injection, schedule: Q01DX009 (ip), vehicle: saline) was 151 % of control. For the same compound, the T/C (dose: 2.5 mg/kg/injection, schedule: Q01DX001 (ip), vehicle: saline) was 106 % of control and 122 % of control, the T/C (dose: 2.9 mg/kg/injection, schedule: Q01DX001 (ip), vehicle: saline) was 105 % of control and the T/C (dose: 2.9 mg/kg/injection, schedule: Q01DX009 (ip), vehicle: saline) was 230 % of control. The T/C (dose: 3.0 mg/kg/injection, schedule: Q01DX001 (ip), vehicle: carboxymethylcellulose (CMC)) was 120 % of control, the T/C (dose: 3.0 mg/kg/injection, schedule: Q01DX009 (ip), vehicle: saline) was 123 % of control and the T/C (dose: 4.4 mg/kg/injection, schedule: Q01DX001 (ip), vehicle: saline) was 104 % of control. The T/C (dose: 4.4 mg/kg/injection, schedule: Q01DX009 (ip), vehicle: saline) was 108 % of control, the T/C (dose: 5.0 mg/kg/injection, schedule: Q01DX001 (ip), vehicle: saline) was 111 % of control and 124 % of control and the T/C (dose: 6.0 mg/kg/injection, schedule: Q01DX001 (ip), vehicle: carboxymethylcellulose (CMC)) was 108 % of control. The T/C (dose: 6.6 mg/kg/injection, schedule: Q01DX001 (ip), vehicle: saline) was 109 % of control and the T/C (dose: 10.0 mg/kg/injection, schedule: Q01DX001 (ip), vehicle: saline) was 107 % of control.
In the case of `CC1(C)C2CCC1(CS(=O)(=O)O)C(=O)C2Br.[Ag]` (centres undefined), the T/C (dose: 1.56 mg/kg/injection, schedule: Q01DX009 (ip), vehicle: saline) is reported as 101 % of control, the T/C (dose: 3.12 mg/kg/injection, schedule: Q01DX009 (ip), vehicle: saline) is reported as 108 % of control and the T/C (dose: 6.25 mg/kg/injection, schedule: Q01DX009 (ip), vehicle: saline) is reported as 90 % of control. The T/C (dose: 12.5 mg/kg/injection, schedule: Q01DX009 (ip), vehicle: saline with Tween-80) was 93 % of control.
In the case of `CCCC1CC=CCC12C(=O)NC(=O)NC2=O` (centres undefined), the T/C [1] is reported as 103 % of control, the T/C [2] is reported as 97 % of control and the T/C (dose: 400.0 mg/kg/injection, schedule: Q01DX001 (ip), vehicle: saline) is reported as 97 % of control.
`C[AsH](C)CC[AsH](C)C.C[AsH](C)CC[AsH](C)C.C[AsH](C)CC[AsH](C)C.[Ni]` was tested, and the T/C (dose: 25.0 mg/kg/injection, schedule: Q04DX002 (ip), vehicle: saline) was 103 % of control and the T/C (dose: 50.0 mg/kg/injection, schedule: Q04DX002 (ip), vehicle: saline) was 109 % of control.
For `COc1cc(C=Nc2ccc(-c3nc(C)sc3C)cc2)ccc1N(CCOS(C)(=O)=O)CCOS(C)(=O)=O`, the T/C [3] was 111 % of control, the T/C [1] was 110 % of control and the T/C [4] was 121 % of control. For the same compound, the T/C [2] was 105 % of control and the T/C [5] was 116 % of control.
With `CC(C1=C(CCN(C)C)Cc2ccccc21)c1ccccn1` (centres undefined) the T/C [1] was 107 % of control.
With `Nc1ccc(CCC(=O)NC(CCC(=O)O)C(=O)O)cc1` (centres undefined) the T/C [4] was 102 % of control, the T/C (dose: 100.0 mg/kg/injection, schedule: Q04DX002 (ip), vehicle: saline) was 98 % of control and the T/C [5] was 108 % of control. The T/C (dose: 200.0 mg/kg/injection, schedule: Q04DX002 (ip), vehicle: saline) was 105 % of control, the T/C (dose: 400.0 mg/kg/injection, schedule: Q01DX009 (ip), vehicle: saline) was 96 % of control and the T/C (dose: 400.0 mg/kg/injection, schedule: Q04DX002 (ip), vehicle: saline) was 94 % of control.
For `O/N=C/c1nc2ccccc2[nH]1`, the T/C (dose: 75.0 mg/kg/injection, schedule: Q01DX001 (ip), vehicle: other) was 90 % of control, the T/C (dose: 150.0 mg/kg/injection, schedule: Q01DX001 (ip), vehicle: other) was 90 % of control and the T/C (dose: 300.0 mg/kg/injection, schedule: Q01DX001 (ip), vehicle: other) was 95 % of control.
`C/C(O)=C/c1cc(N2CCCCC2)nc(=S)[nH]1` was tested, and the T/C (dose: 100.0 mg/kg/injection, schedule: Q04DX003 (ip), vehicle: Klucel (hydroxypropylcellulose) (HPC)) was 102 % of control, the T/C (dose: 200.0 mg/kg/injection, schedule: Q04DX003 (ip), vehicle: Klucel (hydroxypropylcellulose) (HPC)) was 100 % of control and the T/C (dose: 400.0 mg/kg/injection, schedule: Q04DX003 (ip), vehicle: Klucel (hydroxypropylcellulose) (HPC)) was 100 % of control.
For `CCNC(C)(C)C(=O)c1ccco1`, the T/C [3] was 94 % of control, the T/C [4] was 100 % of control and the T/C [5] was 94 % of control.
For `CC(=O)Nc1ccc(Cl)c(F)c1Cl`, the T/C (dose: 100.0 mg/kg/injection, schedule: Q04DX002 (ip), vehicle: Klucel (hydroxypropylcellulose) (HPC)) was 104 % of control, the T/C (dose: 200.0 mg/kg/injection, schedule: Q04DX002 (ip), vehicle: Klucel (hydroxypropylcellulose) (HPC)) was 93 % of control and the T/C (dose: 400.0 mg/kg/injection, schedule: Q04DX002 (ip), vehicle: Klucel (hydroxypropylcellulose) (HPC)) was 107 % of control.
For `COc1ccc(/C=C/C(=O)c2ccc3cc(OC)c(OC)cc3c2)cc1OC`, the T/C [6] was 91 % of control, the T/C [7] was 89 % of control and the T/C (dose: 400.0 mg/kg/injection, schedule: Q04DX003 (ip), vehicle: saline) was 87 % of control.
In the case of `CC(C)(C)OC1C2C=CC1C1C2C(C)(C)C1(C)C` (centres undefined), the T/C (dose: 100.0 mg/kg/injection, schedule: Q01DX001 (ip), vehicle: saline with Tween-80) is reported as 90 % of control and the T/C (dose: 200.0 mg/kg/injection, schedule: Q01DX001 (ip), vehicle: saline with Tween-80) is reported as 90 % of control.
For `O=C(O)C(O)C(=O)O.[NH2-].[NH2-].[Pt+2]`, the T/C (dose: 1.0 mg/kg/injection, schedule: Q01DX001 (ip), vehicle: other) was 94 % of control, the T/C (dose: 2.0 mg/kg/injection, schedule: Q01DX001 (ip), vehicle: other) was 95 % of control and the T/C (dose: 2.0 mg/kg/injection, schedule: Q01DX009 (ip), vehicle: other) was 101 % of control. The T/C (dose: 4.0 mg/kg/injection, schedule: Q01DX001 (ip), vehicle: other) was 98 % of control, the T/C (dose: 4.0 mg/kg/injection, schedule: Q01DX009 (ip), vehicle: other) was 101 % of control and the T/C (dose: 8.0 mg/kg/injection, schedule: Q01DX001 (ip), vehicle: other) was 98 % of control. The T/C (dose: 8.0 mg/kg/injection, schedule: Q01DX009 (ip), vehicle: other) was 101 % of control, the T/C (dose: 16.0 mg/kg/injection, schedule: Q01DX001 (ip), vehicle: other) was 101 % of control and the T/C (dose: 25.0 mg/kg/injection, schedule: Q04DX003 (ip), vehicle: saline) was 112 % of control. For the same compound, the T/C (dose: 32.0 mg/kg/injection, schedule: Q01DX001 (ip), vehicle: other) was 109 % of control, the T/C (dose: 32.0 mg/kg/injection, schedule: Q01DX009 (ip), vehicle: other) was 187 % of control and the T/C (dose: 40.0 mg/kg/injection, schedule: Q01DX001 (ip), vehicle: other) was 122 % of control. The T/C (dose: 60.0 mg/kg/injection, schedule: Q01DX001 (ip), vehicle: other) was 158 % of control, the T/C (dose: 80.0 mg/kg/injection, schedule: Q01DX001 (ip), vehicle: other) was 168 % of control and the T/C (dose: 100.0 mg/kg/injection, schedule: Q01DX001 (ip), vehicle: other) was 114 % of control. For the same compound, the T/C (dose: 128.0 mg/kg/injection, schedule: Q01DX001 (ip), vehicle: other) was 121 % of control.
`CCCN(CCC)CC(C)=O` was tested, and the T/C [4] was 98 % of control, the T/C [6] was 107 % of control and the T/C [5] was 101 % of control. For the same compound, the T/C [7] was 109 % of control.
`CCCCCCCCNc1ccc(Cl)cc1` was tested, and the T/C (dose: 100.0 mg/kg/injection, schedule: Q01DX001 (ip), vehicle: saline + alcohol) was 91 % of control, the T/C (dose: 200.0 mg/kg/injection, schedule: Q01DX001 (ip), vehicle: saline + alcohol) was 102 % of control and the T/C (dose: 400.0 mg/kg/injection, schedule: Q01DX001 (ip), vehicle: saline + alcohol) was 98 % of control.
`NNc1c2ccccc2nc2ccccc12` was tested, and the T/C (dose: 0.5 mg/kg/injection, schedule: Q04DX003 (ip), vehicle: Klucel (hydroxypropylcellulose) (HPC)) was 103 % of control, the T/C (dose: 1.0 mg/kg/injection, schedule: Q04DX003 (ip), vehicle: Klucel (hydroxypropylcellulose) (HPC)) was 100 % of control and the T/C (dose: 2.0 mg/kg/injection, schedule: Q04DX003 (ip), vehicle: Klucel (hydroxypropylcellulose) (HPC)) was 95 % of control.
